Among the data in patent US7417062B2, “Substituted arylamides” (ChemoCentryx, Inc., priority 2004, dated 2008) are IC50 values, retold here.

T1 sequence (P25106 whole entry): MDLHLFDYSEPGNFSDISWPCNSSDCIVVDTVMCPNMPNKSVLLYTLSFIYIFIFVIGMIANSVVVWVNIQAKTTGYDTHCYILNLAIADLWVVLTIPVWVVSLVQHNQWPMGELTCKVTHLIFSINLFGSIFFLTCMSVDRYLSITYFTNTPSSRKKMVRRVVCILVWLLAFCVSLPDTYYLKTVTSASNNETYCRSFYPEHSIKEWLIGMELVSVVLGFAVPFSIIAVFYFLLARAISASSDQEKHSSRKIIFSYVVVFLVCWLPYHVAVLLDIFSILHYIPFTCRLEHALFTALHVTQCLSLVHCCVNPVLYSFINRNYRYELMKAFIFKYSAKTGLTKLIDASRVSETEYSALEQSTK

The first experiment concerns the target T1, CCXCKR2 receptor (Homo sapiens, UniProt P25106).
T1 construct: host or cells: MCF-7 (endogenous) and/or MDA-MB-435S transfected with hRDC1 in pcDNA3.1(+)
The experiment is described as follows: Displacement of 125I-labeled SDF-1 from the CCXCKR2 receptor (radioligand binding, determination of IC50 values).
Conditions: not given
The method, then: The ability of the compounds to displace the labeled chemokine from the CCXCKR2 receptor sites at multiple concentrations was then determined with the screening process.
Compounds that were deemed effective modulators were able to displace at least 50% of the SDF-1 from the CCXCKR2 receptor at concentrations at or below 10 micromolar (μM) and more preferably at concentrations at or below 2 micromolar. At present, especially preferred compounds can displace at least 50% of the SDF-1 from the CCXCKR2 receptor at concentrations at or below 500 nM. Exemplary compounds that met these criteria are reproduced in Table B below. All compounds were prepared as described in the Examples above, or by related methods substituting readily available starting materials.
Reagents and Cells. ^125I-labeled SDF-1 was purchased from Perkin-Elmer Life Sciences, Inc. (Boston, Mass.). The MCF-7 (adenocarcinoma; mammary gland) cell line was obtained from the American Type Culture Collection (Manassas, Va.) or and was cultured in DMEM (Mediatech, Herndon, Va.) supplemented with 10% fetal bovine serum (FBS) (HyClone Logan, Utah) and bovine insulin (0.01 mg/mL) (Sigma, St. Louis, Mo.) at 37° C. in a humidified incubator at a 5% CO2/air mixture. CCXCKR2 transfected MDA-MB-435S were produced as described below. MDA-MB-435S human breast cancer line, was purchased from ATCC, and cultured in DMEM/10% FBS medium. The complete coding sequence of the gene encoding CCXCKR2 (a.k.a.CXCR7, hRDC1), was isolated from MCF-7 cells using μMACs mRNA isolation kit (Miltenyi Biotec, Auburn, Calif.). DNA contamination was removed by DNase digestion via RNeasy columns (Qiagen, Inc., Valencia, Calif.) and cDNA was generated using GeneAmp RNA PCR Core Kit (Applied Biosystems, Foster City, Calif.). PCR of cDNA samples was performed using Taq PCR Master Mix kit (Qiagen, Inc.) and hRDC1 primers harboring 5′ and 3′ Not I sites (hRDC1F 5′-[…]-3′ (SEQ ID NO:1), hRDC1R 5′-[…]-3′ (SEQ ID NO:2)) Not I digested PCR product was ligated into Not I digested pcDNA3.1(+)(Invitrogen, Carlsbad, Calif.) and screened for orientation and sequence confirmed. Plasmid DNA was then isolated from overnight bacterial cultures by Maxiprep (Qiagen, Inc.). Plasmid DNA (10 μg) was added to MDA-MB-435s cells and cells were electroporated (0.22 kV, 960 uF) via Gene Pulser (Biorad laboratories, Hercules, Calif.). 48 hr post-electroporation, cells were transferred to selection medium (1000 ug/ml G418).
Binding Analysis. Target compounds were tested to determine their ability to bind with CCXCKR2 sites on MCF-7 and/or MDA-MB-435S cells. Efficiency-maximized radioligand binding using filtration protocols as described in Dairaghi D J, et al., HHV8-encoded vMIP-I selectively engages chemokine receptor CCR5. Agonist and antagonist profiles of viral chemokines., J. Biol. Chem. 1999 Jul. 30; 274(31): 21569-74 and Gosling J, et al., Cutting edge: identification of a novel chemokine receptor that binds dendritic cell-and T cell-active chemokines including ELC, SLC, and TECK., J. Immunol. 2000 Mar. 15; 164(6):2851-6 was used.
In these assays, MCF-7 and/or MDA-MB-435S cells were interrogated with the target compounds and the ability of these compounds to displace ^125I radiolabeled SDF-1 was assessed using the protocol described in Dairaghi and Gosling. The target compounds were added to the plate to the indicated concentration and were then incubated with cells followed by the addition of radiolabeled chemokine (^125I SDF-1) for 3 hr at 4° C. in the following binding medium (25 mM HEPES, 140 mM NaCl, 1 mM CaCl2, 5 mM MgCl2 and 0.2% bovine serum albumin, adjusted to pH 7.1). All assays were then incubated for 3 hrs at 4° C. with gentle agitation. Following incubation in all binding assays, reactions were aspirated onto PEI-treated GF/B glass filters (Packard) using a cell harvester (Packard) and washed twice (25 mM HEPES, 500 mM NaCl, 1 mM CaCl2, 5 mM MgCl2, adjusted to pH 7.1). […]
In the case of `COc1cc(C(=O)N(Cc2ccc3cccnc3n2)C[C@@H]2CCCN2C[C@H]2C[C@H]3CC[C@@H](C2)N3)cc2c1OC(C)(C)O2` [Example 41], the IC50 is under 500 nM.

As for `COc1cc(C(=O)N(Cc2cc3ccccc3cn2)C[C@@H]2CCCN2C[C@@H]2C[C@H]3CC[C@@H](C2)N3)cc2c1OC(C)(C)O2` [Example 63, 7-Methoxy-2,2-dimethyl-benzo[1,3]dioxole-5-carboxylic acid {(S)-1-[(1S,3S,5R)-1-(8-aza-bicyclo[3.2.1]oct-3-yl)methyl]-pyrrolidin-2-ylmethyl}-isoquinolin-3-ylmethyl-amide], the IC50 is under 500 nM.

Staying with this experiment, now noted: MCF-7 and/or MDA-MB-435S cells expressing CCXCKR2; 125I SDF-1; 3 hr at 4° C.; read-out: Activity (ability to displace 125I SDF-1 from CCXCKR2).
For `COc1cc(C(=O)N(CCC2CCCN2C)Cc2nc3ccccc3n2C)cc(OC)c1OC` (stereo not shown) [Example 14, 3,4,5-Trimethoxy-N-(1-methyl-1H-benzoimidazol-2-ylmethyl)-N-[2-(1-methyl-pyrrolidin-2-yl)-ethyl]-benzamide], the IC50 is under 10000 nM.

For the molecule `COc1cc(C(=O)N(Cc2cc3cc(Cl)ccc3o2)C[C@@H]2CCCN2)ccc1OC(F)F`, the IC50 was under 500 nM.

Consider `COc1cc(C(=O)N(CCC2CCCN2C)Cc2cccc3ccccc23)cc(OC)c1OC` (stereo not shown) [Example 6, 3,4,5-Trimethoxy-N[2-(1-methyl-pyrrolidin-2-yl)-ethyl]-N-naphthalen-1-ylmethyl-benzamide], for which the IC50 was under 2000 nM.

Take `COc1cc(C(=O)N(Cc2cc3ccccc3s2)C[C@@H]2CCCN2C2CCC2)cc2c1OC(C)(C)O2` [Example 60, 7-Methoxy-2,2-dimethyl-benzo[1,3]dioxole-5-carboxylic acid benzo[b]thiophen-2-ylmethyl-((S)-1-cyclobutyl-pyrrolidin-2-ylmethyl)-amide]: the IC50 was under 500 nM.

As for `COc1cc(C(=O)N(CCC2CCCN2C)Cc2cc3ccccc3s2)cc(OC)c1OC` (stereo not shown) [Example 8, N-Benzo[b]thiophen-2-ylmethyl-3,4,5-trimethoxy-N-[2-(1-methyl-pyrrolidin-2-yl)-ethyl]-benzamide], the IC50 is under 500 nM.

As for `COc1cc(C(=O)N(Cc2cnc3ccccc3c2)C[C@@H]2CCCN2C2CCC2)cc2c1OC(C)(C)O2`, the IC50 is under 10000 nM.

With `COc1ccc(C(=O)N(C[C@@H]2CCCN2CC2CCCCC2)c2ccc(-c3ccccc3)cc2)cc1OC`, the IC50 is under 10000 nM.

With `COc1ccc(C(=O)N(C[C@@H]2CCCN2CCO)c2cccc(-c3ccccc3)c2)cc1OC` [Example 22, N-Biphenyl-3-yl-(S)—N[1-(2-hydroxy-ethyl)-pyrrolidin-2ylmethyl]-3,4-dimethoxy-benzamide], the IC50 is under 500 nM.

As to `COc1cc(C(=O)N(C[C@@H]2C[C@@H]3CCCC[C@@H]3N2)C(C)c2cc3ccccc3cn2)cc2c1OC(C)(C)O2` (stereo partly drawn) [Example 66, 7-Methoxy-2,2-dimethyl-benzo[1,3]dioxole-5-carboxylic acid (1-isoquinolin-3-yl-ethyl)-[(2S,3aS,7aS)-1-(octahydro-indol-2-yl)methyl]-amide], the IC50 is under 500 nM.

As to `COc1cc(C(=O)N(Cc2cc3ccccc3o2)C[C@@H]2CCCN2C2CCC2)cc2c1OC(C)(C)O2` [Example 58, 7-Methoxy-2,2-dimethyl-benzo[1,3]dioxole-5-carboxylic acid benzofuran-2-ylmethyl-((S)-1-cyclobutyl-pyrrolidin-2-ylmethyl)-amide], the IC50 is under 500 nM.

Consider `COc1ccc(C(=O)N(Cc2cc3ccccc3s2)C[C@@H]2CCCN2CC2CCCCC2)cc1OC` [Example 30, N-Benzo[b]thiophen-2-yl methyl-(S)—N-(1-cyclohexylmethyl-pyrrolidin-2-ylmethyl)-3,4-dimethoxy-benzamide], for which the IC50 was under 500 nM.

Consider `COc1cc(C(=O)N(Cc2csc(-c3ccccc3)n2)C[C@@H]2CCCN2C)cc2c1OC(C)(C)O2` [Example 56, 7-Methoxy-2,2-dimethyl-benzo[1,3]dioxole-5-carboxylic acid ((S)-1-methyl-pyrrolidin-2-ylmethyl)-(2-phenyl-thiazol-4-ylmethyl)-amide], for which the IC50 is under 500 nM.

With `COc1ccc(C(=O)N(C[C@@H]2CCCN2)c2cccc(-c3ccccc3)c2)cc1OC` [Example 21], the IC50 is under 2000 nM.

Consider `COc1ccc(C(=O)N(C[C@@H]2CCCN2CC2CC2)c2cccc(-c3ccc(N(C)C)cc3)c2)cc1OC` [Example 37, (S)—N-(1-Cyclopropylmethyl-pyrrolidin-2-ylmethyl)-N-(4′-dimethylamino-biphenyl-3-yl)-3,4-dimethoxy-benzamide], for which the IC50 was under 10000 nM.

Consider `COc1cc(C(=O)N(C[C@@H]2C[C@@H]3CCCC[C@@H]3N2)C(C)c2ccc3ccccc3n2)cc2c1OC(C)(C)O2` (stereo partly drawn) [Example 71, 7-Methoxy-2,2-dimethyl-benzo[1,3]dioxole-5-carboxylic acid [(2S,3aS,7aS)-1-(octahydro-indol-2-yl)methyl]-(1-quinolin-2-yl-ethyl)-amide], for which the IC50 is under 500 nM.

On to `COc1ccc(C(=O)N(C[C@@H]2CCCN2C(C)C)c2cccc(-c3ccccc3)c2)cc1OC` [Example 23, N-Biphenyl-3-yl-(S)—N-(1-isopropyl-pyrrolidin-2-ylmethyl)-3,4-dimethoxy-benzamide], for which the IC50 was under 500 nM.

With `COc1ccc(C(=O)N(Cc2nc3ccccc3s2)C[C@@H]2CCCN2CC2CCCCC2)cc1OC` [Example 27, N-Benzothiazol-2-yl methyl-(S)—N-(1-cyclohexylmethyl-pyrrolidin-2-ylmethyl)-3,4-dimethoxy-benzamide], the IC50 is under 500 nM.

For `COc1ccc(C(=O)N(C[C@@H]2CCCN2CC2CCCCC2)c2cccc(-n3ccnn3)c2)cc1OC` [Example 76, N-((S)-1-Cyclohexylmethyl-pyrrolidin-2-ylmethyl)-3,4-dimethoxy-N-(3-[1,2,3]triazol-1-yl-phenyl)-benzamide], the IC50 is under 10000 nM.

In the case of `COc1ccc(C(=O)N(Cc2ccc3ccccc3c2)C[C@@H]2CCCN2CC2CC=CCC2)cc1OC` (stereo partly shown) [Example 1a], the IC50 was under 500 nM.

`COc1cc(C(=O)N(Cc2cc3ccccc3o2)C[C@@H]2C[C@@H]3CCCC[C@@H]3N2)cc2c1OC(C)(C)O2` [Example 57, 7-Methoxy-2,2-dimethyl-benzo[1,3]dioxole-5-carboxylic acid benzofuran-2-ylmethyl-[(2S,3aS,7aS)-1-(octahydro-indol-2-yl)methyl]-amide]: the IC50 was under 500 nM.

On to `COc1cc(C(=O)N(Cc2ccc3ccccc3n2)C[C@@H]2CCCN2C2CCC2)cc2c1OC(C)(C)O2` [Example 43, 7-Methoxy-2,2-dimethyl-benzo[1,3]dioxole-5-carboxylic acid ((S)-1-cyclobutyl-pyrrolidin-2-ylmethyl)-quinolin-2-ylmethyl-amide], for which the IC50 is under 500 nM.

Consider `COc1cc(C(=O)N(Cc2nc(-c3ccccc3)cs2)C[C@@H]2C[C@@H]3CCCC[C@@H]3N2)cc2c1OC(C)(C)O2` [Example 51, 7-Methoxy-2,2-dimethyl-benzo[1,3]dioxole-5-carboxylic acid (octahydro-indol-2-ylmethyl)-(4-phenyl-thiazol-2-ylmethyl)-amide], for which the IC50 is under 500 nM.

Regarding `COc1ccc(C(=O)N(Cc2ccc3ccccc3c2)C[C@@H]2CCCN2CC2CCCCC2)cc1OC` [Example 1, N—(S)-(1-Cyclohexylmethyl-pyrrolidine-2-ylmethyl)-3,4-dimethoxy-N-naphthalen-2-ylmethyl-benzamide], the IC50 is under 500 nM.
